Assay results: patent publication US12351570B2 (MERCK PATENT GMBH, priority 2018, dated 2025)

System: MDA-MB-231 cells
Experiment: Extracellular lactate production inhibition after 4 h, MDA-MB-231
Conditions: Homo sapiens, MDA-MB-231
Method: Extracellular Lactate Production Inhibition after 4 h
Cells were plated in growth media supplemented with 10% FBS, followed by overnight recovery at 37° C., 5% CO2. […] Plates were then moved for 4 h incubation at 37° C., 5% CO2 with subsequent 20 μl media transfer to empty 384-well transparent plates. […] Plates were short-spun and measured kinetically in absorbance mode (530 nm, 12 min measurement time with 2-minute intervals between subsequent readouts at 30° C.). Differences in the signal between T8 min and T0min were normalized to vehicle (cells w/ 0.25% DMSO) and quasi-positive (LCIS buffer w/ 0.25% DMSO) controls and plotted against logarithmically-transformed test compound concentrations with fitting the 4-parameter model in GraphPad Prism software.

Structure (SMILES) | IC50 [µM]
COc1ccc(S(=O)(=O)N(C)c2ccccc2C#Cc2cnc(C(=O)O)cc2C)c2ncccc12 [Compound 123, 4-methyl-5-{2-[2-(N-methyl5-methoxyquinoline-8-sulfonamido)phenyl]ethynyl}pyridine-2-carboxylic acid] | 1 to 100
Cc1ccc2cccnc2c1S(=O)(=O)Nc1c(F)cccc1C#Cc1ccc(C(=O)O)nc1 [Compound 106, 5-{2-[3-fluoro-2-(7-methylquinoline-8-sulfonamido)phenyl]ethynyl}pyridine-2-carboxylic acid] | 1 to 100
Cc1nc(C(=O)O)ccc1C#Cc1ccccc1NS(=O)(=O)c1ccc2ccccc2c1 [Compound 51, 6-methyl-5-{2-[2-(naphthalene-2-sulfonamido)phenyl]ethynyl}pyridine-2-carboxylic acid] | 1 to 100
O=C(O)c1ccc(C#Cc2ccccc2NS(=O)(=O)C2CS(=O)(=O)c3ccccc32)cc1 (stereo not drawn) [Compound 76, 4-{2-[2-(1,1-dioxo-2,3-dihydro-1lambda6-benzo[b]thiophene-3-sulfonamido)phenyl]ethynyl}benzoic acid] | 1 to 100
COC(=O)c1ccc(C#Cc2ccccc2NS(=O)(=O)c2ccc(-n3cccn3)cc2)cn1 [Compound 133, methyl 5-(2-{2-[4-(1H-pyrazol-1-yl)benzenesulfonamido]phenyl}-ethynyl)pyridine-2-carboxylate] | 0.1 to 1
COc1cc(C(=O)O)ncc1C#Cc1ccccc1NS(=O)(=O)c1cccc2c(N(C)C)ccnc12 [Compound 418, 5-[2-(4-Dimethylamino-quinoline-8-sulfonylamino)-phenylethynyl]-4-methoxy-pyridine-2-carboxylic acid] | 0.1 to 1
O=C(O)c1ncc(C#Cc2ccccc2NS(=O)(=O)c2cccc3ccccc23)cc1C(F)(F)F [Compound 283, 5-{2-[2-(naphthalene-1-sulfon-amido)phenyl]ethynyl}-3-(trifluoro-methyl)pyridine-2-carboxylic acid] | 1 to 100
O=C(O)c1ccc(C#Cc2ccccc2NS(=O)(=O)c2cccc3c2OCCO3)cc1 [Compound 254, 4-[2-(2,3-Dihydro-benzo[1,4]dioxine-5-sulfonylamino)-phenylethynyl]-benzoic acid] | 1 to 100
Cc1cc(C)c2cccnc2c1S(=O)(=O)Nc1ccccc1C#Cc1cnc(C(=O)O)c2ccccc12 [Compound 446, 4-{2-[2-(5,7-dimethylquinoline-8-sulfonamido)phenyl]ethynyl}iso-quinoline-1-carboxylic acid] | 0.1 to 1
CCOc1ccc(C#Cc2ccc(C(=O)O)nc2)c(NS(=O)(=O)c2cccc3cccnc23)c1 [Compound 327, 5-[4-Ethoxy-2-(quinoline-8-sulfonylamino)-phenylethynyl]-pyridine-2-carboxylic acid] | 1 to 100
Cc1ccc(C#Cc2ccc(C(=O)O)cc2)c(NS(=O)(=O)c2ccc3ccccc3c2)c1 [Compound 46, 4-{2-[4-methyl-2-(naphthalene-2-sulfonamido)phenyl]ethynyl}benzoic acid] | 0.1 to 1
O=C(O)c1ccc(C#Cc2ccccc2NS(=O)(=O)N2CCC3CCCCC3C2)cn1 (stereo not drawn) [Compound 103, 5-(2-{2-[(decahydroisoquinoline-2-sulfonyl)amino]phenyl}ethynyl)pyridine-2-carboxylic acid] | 0.1 to 1
COc1ccc(S(=O)(=O)Nc2ccccc2C#Cc2cnc(C(=O)O)c(C)c2)c2ccccc12 [Compound 63, 5-{2-[2-(4-methoxynaphthalene-1-sulfonamido)phenyl]ethynyl}-3-methylpyridine-2-carboxylic acid] | 0.1 to 1
CCc1ccc(S(=O)(=O)Nc2ccccc2C#Cc2ccc(C(=O)O)nc2)c2ncccc12 [Compound 411, 5-{2-[2-(5-ethylquinoline-8-sulfonamido)phenyl]ethynyl}pyridine-2-carboxylic acid] | 0.1 to 1
Cc1cc(C(=O)O)ncc1C#Cc1ccccc1NS(=O)(=O)c1cccc2c(N(C)C)ccnc12 [Compound 421, 5-[2-(4-Dimethylamino-quinoline-8-sulfonylamino)-phenylethynyl]-4-methyl-pyridine-2-carboxylic acid] | 0.1 to 1
COc1ccc(S(=O)(=O)Nc2ccc(F)cc2C#Cc2ccc(C(=O)O)cc2)c2ccccc12 [Compound 25, 4-{2-[5-fluoro-2-(4-methoxynaphthalene-1-sulfonamido)phenyl]ethynyl}benzoic acid] | 0.1 to 1
COC(=O)c1ncc(C#Cc2cc(F)ccc2NS(=O)(=O)c2c(C)ccc3cccnc23)cc1C [Compound 312, methyl 5-{2-[5-fluoro-2-(7-methylquinoline-8-sulfonamido)phenyl]ethynyl}-3-methylpyridine-2-carboxylate] | 1 to 100

Now from value to molecule:

IC50 [µM] | Structure (SMILES)
0.1 to 1 | COc1ccc(S(=O)(=O)Nc2ccccc2C#Cc2ccc(C(=O)O)cc2)c(C)c1 [Compound 47, 4-{2-[2-(4-methoxy-2-methylbenzenesulfonamido)phenyl]ethynyl} benzoic acid]
0.01 to 0.1 | COC(=O)c1cc(C)c(C#Cc2ccccc2NS(=O)(=O)c2ccc(OC)c3cccnc23)cn1 [Compound 122, methyl 5-{2-[2-(5-methoxyquinoline-8-sulfonamido)phenyl]ethynyl}-4-methylpyridine-2-carboxylate]
0.01 to 0.1 | COc1cc(C(=O)OCC2COC(C)(C)O2)ncc1C#Cc1ccccc1NS(=O)(=O)c1c(C)ccc2cccnc12 (stereo not drawn) [Compound 406, (2,2-dimethyl-1,3-dioxolan-4-yl)methyl 4-methoxy-5-{2-[2-(7-methylquinoline-8-sulfonamido)phenyl]ethynyl}pyridine-2-carboxylate]
0.01 to 0.1 | O=C(O)c1ccc(C#Cc2ccccc2NS(=O)(=O)c2c(Cl)cc(Cl)c3cccnc23)cn1 [Compound 306, 5-{2-[2-(5,7-dichloroquinoline-8-sulfonamido)phenyl]ethynyl}pyridine-2-carboxylic acid]
0.1 to 1 | Cn1c2ccccc2c2c(S(=O)(=O)Nc3ccccc3C#Cc3ccc(C(=O)O)nc3)cccc21 [Compound 198, 5-{2-[2-(9-methyl-9H-carbazole-4-sulfonamido)phenyl]ethynyl}pyridine-2-carboxylic acid]
0.1 to 1 | O=CN(Cc1ccc(-c2ccccc2)nc1)c1ccccc1C#Cc1ccc(C(=O)O)nc1 [Compound 220, 5-[2-(2-{N-[(6-phenylpyridin-3-yl)methyl]formamido}phenyl)-ethynyl]pyridine-2-carboxylic acid]
0.1 to 1 | COc1ccc(S(=O)(=O)Nc2ccccc2C#Cc2ccc(C(=O)O)c(F)c2)c2ccccc12 [Compound 45, 2-fluoro-4-{2-[2-(4-methoxynaphthalene-1-sulfonamido)phenyl]ethynyl}benzoic acid]
0.001 to 0.01 | COc1cc(C(=O)O)ncc1C#Cc1ccccc1NS(=O)(=O)c1c(C)cc(OC)c2cccnc12 [Compound 372, 4-Methoxy-5-[2-(5-methoxy-7-methyl-quinoline-8-sulfonylamino)-phenylethynyl]-pyridine-2-carboxylic acid]
0.001 to 0.01 | COc1cc(C(=O)O)ncc1C#Cc1ccccc1N(C=O)Cc1ccc(-c2ccccc2OC)cc1 [Compound 215, 4-methoxy-5-(2-{2-[N-({2′-methoxy-[1,1′-biphenyl]-4-yl}methyl)formamido]phenyl}-ethynyl)pyridine-2-carboxylic acid]
0.01 to 0.1 | O=CN(Cc1ccc(-c2ccccc2)cc1)c1ccccc1C#Cc1ccc(C(=O)O)nc1 [Compound 183, 5-(2-{2-[N-({[1,1′-biphenyl]-4-yl}methyl)formamido]phenyl}-ethynyl)pyridine-2-carboxylic acid]
